In patent US20250361230A1, “LATS Inhibitors and Uses Thereof” (The USA, as Represented by the Secretary, Dept. of Heath …, priority 2022, published 2025):
Like-named read-outs stand apart in the source and are kept apart here.

Columns and labels:
Type in all cases: biochemical
LATS1 = target: T1, LATS1 (Homo sapiens, UniProt O95835); assay: RBC HotSpot kinase assay (33P-ATP, P81 filter-binding), LATS1; settings: read-out: LATS1 IC50
T1 sequence (O95835 1-1130): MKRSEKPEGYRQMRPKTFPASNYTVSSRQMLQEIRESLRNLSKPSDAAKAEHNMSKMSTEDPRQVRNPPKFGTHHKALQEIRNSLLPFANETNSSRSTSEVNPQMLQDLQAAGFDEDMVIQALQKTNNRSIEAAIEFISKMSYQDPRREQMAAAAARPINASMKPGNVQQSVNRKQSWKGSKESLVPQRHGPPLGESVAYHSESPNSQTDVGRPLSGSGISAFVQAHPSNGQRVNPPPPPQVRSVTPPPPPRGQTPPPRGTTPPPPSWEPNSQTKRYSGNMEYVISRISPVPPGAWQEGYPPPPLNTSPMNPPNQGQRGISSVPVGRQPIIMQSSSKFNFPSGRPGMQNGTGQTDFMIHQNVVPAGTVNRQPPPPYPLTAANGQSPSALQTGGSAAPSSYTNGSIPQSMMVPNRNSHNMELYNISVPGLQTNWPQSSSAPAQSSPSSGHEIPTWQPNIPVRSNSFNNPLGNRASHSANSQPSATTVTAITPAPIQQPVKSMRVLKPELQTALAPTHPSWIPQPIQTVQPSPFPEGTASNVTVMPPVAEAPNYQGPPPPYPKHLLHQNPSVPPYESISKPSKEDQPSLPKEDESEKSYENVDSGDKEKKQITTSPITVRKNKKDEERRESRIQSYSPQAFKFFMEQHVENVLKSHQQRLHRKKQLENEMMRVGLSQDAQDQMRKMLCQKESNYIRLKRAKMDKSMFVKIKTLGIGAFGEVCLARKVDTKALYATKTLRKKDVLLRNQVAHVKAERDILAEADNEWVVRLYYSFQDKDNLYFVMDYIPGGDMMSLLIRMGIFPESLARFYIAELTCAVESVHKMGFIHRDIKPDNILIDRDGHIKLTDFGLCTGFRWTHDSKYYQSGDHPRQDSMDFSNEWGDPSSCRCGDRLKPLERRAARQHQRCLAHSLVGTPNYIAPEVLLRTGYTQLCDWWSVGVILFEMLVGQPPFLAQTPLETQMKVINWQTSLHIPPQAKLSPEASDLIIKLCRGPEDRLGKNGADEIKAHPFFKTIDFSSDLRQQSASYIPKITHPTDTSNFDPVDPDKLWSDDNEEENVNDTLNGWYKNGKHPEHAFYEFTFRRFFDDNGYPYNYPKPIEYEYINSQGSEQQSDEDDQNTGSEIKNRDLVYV
Protocol: (§1) Biochemical kinase inhibitory data was obtained for various exemplary compounds prepared according to the above.
(§2) The reagents used are as follows: Base Reaction buffer; 20 mM Hepes (pH 7.5), 10 mM MgCl2, 1 mM EGTA, 0.01% Brij35, 0.02 mg/ml BSA, 0.1 mM Na3VO4, 2 mM DTT, […]. Required cofactors were added individually to each kinase reaction.
(§3) The reaction procedure was as follows: • 1) Substrates were prepared in freshly prepared Reaction Buffer. • 2) Any required cofactors were delivered to the substrate solution above. • 3) Kinase was delivered into the substrate solution and gently mixed. • 4) Compounds were delivered in 100% DMSO into the kinase reaction mixture by Acoustic technology (Echo550; nanoliter range), followed by incubation for 20 min at room temp. • 5) ^33P-ATP was delivered into the reaction mixture to initiate the reaction. • 6) The mixture was incubated for 2 hours at room temperature. • 7) Kinase activity was detected by P81 filter-binding method.
(§4) Using the above functional assay, the inhibitory activity of the compounds for LATS1/2 versus AKT was characterized. The assays were typically run in a 10-point curve, in singlet, to produce a titration curve from which an IC50 value was obtained.
(§5) The reagents used are as follows: Base Reaction buffer; 20 mM Hepes (pH 7.5), 10 mM MgCl2, 1 mM EGTA, 0.01% Brij35, 0.02 mg/ml BSA, 0.1 mM Na3VO4, 2 mM DTT, 1% DMSO. Required cofactors were added individually to each kinase reaction.
(§6) Biochemical kinase inhibitory data was obtained for various exemplary compounds prepared according to the above in accordance with the protocols described in Examples 4 and 8. All biological activities are IC50, in nM.

LATS2 = target: T2, LATS2 (Homo sapiens, UniProt Q9NRM7); assay: RBC HotSpot kinase assay (33P-ATP, P81 filter-binding), LATS2; settings: read-out: LATS2 IC50
T2 sequence (Q9NRM7 1-1088): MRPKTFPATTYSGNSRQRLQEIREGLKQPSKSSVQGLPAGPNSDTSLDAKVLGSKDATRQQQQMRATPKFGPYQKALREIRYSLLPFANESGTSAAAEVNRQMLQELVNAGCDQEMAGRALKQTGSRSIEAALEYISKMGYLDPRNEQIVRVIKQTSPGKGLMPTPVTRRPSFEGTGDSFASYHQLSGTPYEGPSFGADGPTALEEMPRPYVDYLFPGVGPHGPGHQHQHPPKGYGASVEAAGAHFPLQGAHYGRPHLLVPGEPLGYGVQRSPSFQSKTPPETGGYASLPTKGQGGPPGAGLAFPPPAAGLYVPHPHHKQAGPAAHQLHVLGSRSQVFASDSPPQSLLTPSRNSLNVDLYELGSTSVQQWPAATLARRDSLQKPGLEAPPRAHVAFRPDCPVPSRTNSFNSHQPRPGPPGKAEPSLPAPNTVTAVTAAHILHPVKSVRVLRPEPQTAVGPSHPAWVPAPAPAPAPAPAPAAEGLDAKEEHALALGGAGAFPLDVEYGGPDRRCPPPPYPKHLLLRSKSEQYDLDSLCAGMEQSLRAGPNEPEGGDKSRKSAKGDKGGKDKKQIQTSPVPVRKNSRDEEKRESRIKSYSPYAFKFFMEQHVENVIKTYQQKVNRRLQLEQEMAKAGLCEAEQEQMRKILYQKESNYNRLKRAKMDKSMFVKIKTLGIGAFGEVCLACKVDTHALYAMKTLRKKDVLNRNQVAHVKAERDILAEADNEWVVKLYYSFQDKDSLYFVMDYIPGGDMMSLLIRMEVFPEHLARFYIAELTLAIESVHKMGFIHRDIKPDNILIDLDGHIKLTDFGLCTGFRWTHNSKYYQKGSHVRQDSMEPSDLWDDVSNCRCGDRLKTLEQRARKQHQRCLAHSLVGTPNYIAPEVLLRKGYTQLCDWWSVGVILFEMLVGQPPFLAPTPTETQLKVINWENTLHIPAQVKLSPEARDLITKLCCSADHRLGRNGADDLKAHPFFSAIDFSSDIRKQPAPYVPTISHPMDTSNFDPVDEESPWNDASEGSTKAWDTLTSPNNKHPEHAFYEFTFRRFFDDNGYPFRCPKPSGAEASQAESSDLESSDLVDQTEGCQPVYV
Protocol: as §1, §2, §3, §4, §5, §6

AKT = AKT (Homo sapiens, UniProt P31749); assay: RBC HotSpot kinase assay (33P-ATP, P81 filter-binding), AKT; settings: read-out: AKT IC50
Protocol: as §1, §2, §3, §4, §5, §6

[1] = Table 28, biochemical kinase assay

AKT, sequence (P31749 whole entry): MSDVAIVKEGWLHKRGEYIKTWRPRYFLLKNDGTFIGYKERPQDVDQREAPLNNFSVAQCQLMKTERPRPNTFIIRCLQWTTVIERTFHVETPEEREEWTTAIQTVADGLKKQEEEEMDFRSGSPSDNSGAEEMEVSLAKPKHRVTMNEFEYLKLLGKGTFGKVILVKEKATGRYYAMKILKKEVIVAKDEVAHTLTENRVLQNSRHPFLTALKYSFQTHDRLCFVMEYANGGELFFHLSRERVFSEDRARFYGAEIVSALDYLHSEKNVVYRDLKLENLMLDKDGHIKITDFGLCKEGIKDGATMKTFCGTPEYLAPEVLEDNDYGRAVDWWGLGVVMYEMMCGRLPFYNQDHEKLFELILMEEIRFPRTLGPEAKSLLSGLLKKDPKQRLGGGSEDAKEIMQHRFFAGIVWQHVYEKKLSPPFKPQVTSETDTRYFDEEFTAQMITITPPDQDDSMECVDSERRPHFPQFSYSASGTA

IC50 (LATS1; biochemical kinase inhibition) [µM] | IC50 (LATS2; biochemical kinase inhibition) [µM] | IC50 (AKT; biochemical kinase inhibition) [µM] | IC50 (LATS1; [1]) [µM] | IC50 (LATS2; [1]) [µM] | IC50 (AKT; [1]) [µM] | SMILES
0.0036 | 0.0014 | 0.126 | – | – | – | Cc1cc(-c2ccnc3[nH]cc(C#N)c23)cc(F)c1[C@@]1(O)[C@H](C)CN(C(=O)[C@H](N)CO)C[C@@H]1C (single isomer, unassigned) [Compound 2006]
– | – | – | 0.0723 | 0.0496 | 4.41 | Cc1c[nH]c2nccc(-c3ccc([C@@]4(O)[C@H](C)CNC[C@@H]4C)cn3)c12 [Compound 3, (3R,4s,5S)-3,5-dimethyl-4-(6-(3-methyl-1H-pyrrolo[2,3-b]pyridin-4-yl)pyridin-3-yl)piperidin-4-ol]
– | – | – | 0.0182 | 0.0567 | 4.16 | COc1cc(-c2ccnc3[nH]cc(F)c23)ncc1[C@@]1(O)[C@H](C)CNC[C@@H]1C [Compound 4, (3R,4s,5S)-4-(6-(3-fluoro-1H-pyrrolo[2,3-b]pyridin-4-yl)-4-methoxypyridin-3-yl)-3,5-dimethylpiperidin-4-ol]
– | – | – | 0.0092 | 0.0125 | 0.067 | C[C@@H]1CN(C)C[C@H](C)[C@@]1(O)c1ccc(-c2ccnc3[nH]cc(F)c23)cc1Cl [Compound 5, (3S,4s,5R)-4-(2-chloro-4-(3-fluoro-1H-pyrrolo[2,3-b]pyridin-4-yl)phenyl)-1,3,5-trimethylpiperidin-4-ol]
– | – | – | 0.0013 | 0.0014 | 0.0909 | CC(C)N1C[C@@H](C)[C@](O)(c2ccc(-c3ccnc4[nH]cc(F)c34)cc2Cl)[C@@H](C)C1 [Compound 6, (3S,4s,5R)-4-(2-chloro-4-(3-fluoro-1H-pyrrolo[2,3-b]pyridin-4-yl)phenyl)-1-isopropyl-3,5-dimethylpiperidin-4-ol]
– | – | – | 0.0237 | 0.0203 | 1.72 | Cc1nc(-c2ccnc3[nH]cc(F)c23)ccc1[C@@]1(O)[C@H](C)CNC[C@@H]1C [Compound 10, (3S,4s,5R)-4-(6-(3-fluoro-1H-pyrrolo[2,3-b]pyridin-4-yl)-2-methylpyridin-3-yl)-3,5-dimethylpiperidin-4-ol]
– | – | – | 0.0111 | 0.0107 | 0.143 | C[C@@H]1CNC[C@H](C)[C@@]1(O)c1ccc(-c2ccnc3[nH]cc(F)c23)cc1C(F)(F)F [Compound 11, (3S,4s,5R)-4-(4-(3-fluoro-1H-pyrrolo[2,3-b]pyridin-4-yl)-2-(trifluoromethyl)phenyl)-3,5-dimethylpiperidin-4-ol]
– | – | – | 0.201 | 0.0812 | 0.0101 | Cc1cc(-c2ccnc3[nH]cc(F)c23)cc(Cl)c1[C@@]1(O)[C@H](C)CNC[C@@H]1C [Compound 12, (3S,4s,5R)-4-(2-chloro-4-(3-fluoro-1H-pyrrolo[2,3-b]pyridin-4-yl)-6-methylphenyl)-3,5-dimethylpiperidin-4-ol]
– | – | – | 0.0085 | 0.0072 | 0.362 | Cc1c[nH]c2nccc(-c3cc(F)c([C@@]4(O)[C@H](C)CNC[C@@H]4C)c(F)c3)c12 [Compound 15]
– | – | – | 0.011 | 0.0092 | 1.02 | C[C@@H]1CN(Cc2ccncc2)C[C@H](C)[C@@]1(O)c1c(F)cc(-c2ccnc3[nH]cc(F)c23)cc1F [Compound 19, (3S,4s,5R)-4-(2,6-difluoro-4-(3-fluoro-1H-pyrrolo[2,3-b]pyridin-4-yl)phenyl)-3,5-dimethyl-1-(pyridin-4-ylmethyl)piperidin-4-ol]
– | – | – | 0.0026 | 0.0027 | 0.195 | C[C@@H]1CN(C2CCC2)C[C@H](C)[C@@]1(O)c1ccc(-c2ccnc3[nH]cc(F)c23)cc1Cl [Compound 20, (3S,4s,5R)-4-(2-chloro-4-(3-fluoro-1H-pyrrolo[2,3-b]pyridin-4-yl)phenyl)-1-cyclobutyl-3,5-dimethylpiperidin-4-ol]
– | – | – | 0.003 | 0.0028 | 0.249 | C[C@@H]1CN(C2COC2)C[C@H](C)[C@@]1(O)c1ccc(-c2ccnc3[nH]cc(F)c23)cc1Cl [Compound 21, (3S,4s,5R)-4-(2-chloro-4-(3-fluoro-1H-pyrrolo[2,3-b]pyridin-4-yl)phenyl)-3,5-dimethyl-1-(oxetan-3-yl)piperidin-4-ol]
– | – | – | 0.00073 | 0.00051 | 0.0188 | C[C@@H]1CN(C2CCS(=O)(=O)CC2)C[C@H](C)[C@@]1(O)c1ccc(-c2ccnc3[nH]cc(F)c23)cc1Cl [Compound 26, 4-((3S,4s,5R)-4-(2-chloro-4-(3-fluoro-1H-pyrrolo[2,3-b]pyridin-4-yl)phenyl)-4-hydroxy-3,5-dimethylpiperidin-1-yl)tetrahydro-2H-thiopyran 1,1-dioxide]
– | – | – | 0.0017 | 0.0022 | 0.0479 | Cc1cc(-c2ccnc3[nH]cc(F)c23)ccc1[C@@]1(O)[C@H](C)CN(C2CCOCC2)C[C@@H]1C [Compound 27, (3S,4s,5R)-4-(4-(3-fluoro-1H-pyrrolo[2,3-b]pyridin-4-yl)-2-methylphenyl)-3,5-dimethyl-1-(tetrahydro-2H-pyran-4-yl)piperidin-4-ol]

SMILES | IC50 (LATS1; biochemical kinase inhibition) [µM] | IC50 (LATS2; biochemical kinase inhibition) [µM] | IC50 (AKT; biochemical kinase inhibition) [µM] | IC50 (LATS1; [1]) [µM] | IC50 (LATS2; [1]) [µM] | IC50 (AKT; [1]) [µM]
Cc1cc(-c2ccnc3[nH]cc(F)c23)cc(F)c1[C@@]1(O)[C@H](C)CNC[C@@H]1C [Compound 16, (3S,4s,5R)-4-(2-fluoro-4-(3-fluoro-1H-pyrrolo[2,3-b]pyridin-4-yl)-6-methylphenyl)-3,5-dimethylpiperidin-4-ol] | – | – | – | 0.0071 | 0.01 | 0.201
